The values below come from patent publication EP0066934A1, “Nitrofurantoin salts, their preparation and their use” ("PHARLYSE", Société Anonyme, priority 1981, dated 1982).

The nature of series [1]: in vivo. Particulars: po, dose létale pour 50% des animaux. The source says:
La toxicité de la nitrofurantoïne est connue pour donner des résultats variables suivant les caractéristiques du produit utilisé, notamment la taille des cristaux.

The conditions of series [2]: 10% solution in water. Here is the method: On refroidit à O°C une solution de 11,68 g de lysine base dans 190 ml d'eau. A cette solution limpide, on ajoute par petites portions et sous agitation 10,47 g de nitrofurantoïne. Quelques minutes après la fin de l'addition, la solution est filtrée, congelée et lyophilisée.
The nature of series [3]: Solubility in water. In kind it is physicochemical. The source says: La nitrofurantoïne ou N-(5-nitro-2-fur furylidène)-1-aminohydantoïne est un médicament, bien connu, utilisé notamment comme agent antiseptique des voies urinaires. […] Afin de pallier à cet inconvénient, différentes formes cristallines ont été développées avec peu de succès. Des sels de métaux alcalins de nitrofurantoine ont également été réalisés mais ceux-ci, bien que solubles, présentent l'inconvénient d'apporter avec eux, des ions alcalins qui sont souvent contre- indiqués, notamment lors des traitements au long cours chez les sujets soumis à un régime désodé.

For series [4] the following is noted: aqueous solution; cited from earlier work.
The conditions of series [5]: water, 25°C; cited from earlier work.

Bounds are passed on as bounds.

With `O=C1CN(N=Cc2ccc([N+](=O)[O-])o2)C(=O)N1` [Exemple 2], the 50% lethal dose (LD50) (in general, the dose at which mortality reaches 50%) turned out to be 960 mg/kg in series [1] (mouse); 530 mg/kg in series [1] (mouse, en nitrofurantoïne pure); 1910 mg/kg in series [1] (rat); 1050 mg/kg in series [1] (rat, en nitrofurantoine pure).
As for `O=C1CN(N=Cc2ccc([N+](=O)[O-])o2)C(=O)N1` [Exemple 1], in series [2], the “pH d'une solution à 10% dans l'eau” value is listed as 8,9 - 9,5. Further, the solubility in series [3] (20°C, read-out: solubilité dans l'eau à 20°C) was above 300 mg/mL. Also, the “solubilité dans l'eau (result in words)” value in series [3] (qualitative) is recorded as “instantanément soluble dans l'eau”.
As to `O=C1CN(/N=C/c2ccc([N+](=O)[O-])o2)C(=O)N1` [nitrofurantoïne, N-(5-nitro-2-furfurylidène)-1-aminohydantoïne], the “pKa en solution aqueuse” value in series [4] is given as ~7,2. Further, the “soluble dans l'eau” value in series [5] is 19 mg/100 ml.
